According to patent publication US11685726B2, “Pharmaceutical compositions of 6-(2-(2H-tetrazol-5-yl)ethyl)-6-fluorodecahydroisoquinoline-3-carboxylic acid and ester derivatives thereof” (Sea Pharmaceuticals LLC, priority 2020, dated 2023):

Experiment: Rat behavior observations for signs of motor impairment by trained observer
Format: in vivo
Details: 6 mg/kg subcutaneous, rats, 30 minute observation period
Description: Rat behavior pharmacology observations for signs of motor impairment by trained observer. Rats were monitored after dosing for any signs of impairment by Compound 1 administered as 6 mg/kg dose by subcutaneous route.

## O=C(O)[C@@H]1C[C@H]2C[C@@](F)(CCc3nnn[nH]3)CC[C@H]2CN1 [Compound 1, (3S,4aS,6S,8aR)-6-fluoro-6-[2-(1H-1,2,3,4-tetrazol-5-yl)ethyl]-decahydroisoquinoline-3-carboxylic acid]
  signs of motor impairment / tolerability or neurological changes: No tolerability or neurological changes were observed
